Values quoted from earlier work, collected in paper PMC9329312, “Decoding kinase-adverse event associations for small molecule kinase inhibitors” (Nature Communications, 2022).

Conditions: ref FAERS

## CCOc1cc2ncc(C#N)c(Nc3ccc(OCc4ccccn4)c(Cl)c3)c2cc1NC(=O)/C=C/CN(C)C [neratinib]
  Abdominal discomfort, % of Cases: 4.8%
  Abdominal distension, % of Cases: 3.4%
  Abdominal neoplasm, % of Cases: 0.075%
  Abdominal pain lower, % of Cases: 0.075%
  Abdominal pain upper, % of Cases: 6.0%
  Abdominal pain, % of Cases: 6.2%
  Abdominal tenderness, % of Cases: 0.15%
  Abnormal faeces, % of Cases: 0.15%
  Abscess, % of Cases: 0.15%
  Accidental overdose, % of Cases: 0.15%
  Acne, % of Cases: 1.5%
  Acute kidney injury, % of Cases: 0.6%
  Acute respiratory failure, % of Cases: 0.075%
  Adrenal mass, % of Cases: 0.075%
  Adrenocortical insufficiency acute, % of Cases: 0.075%
  Adverse drug reaction, % of Cases: 2.6%
  Adverse event, % of Cases: 0.075%
  Ageusia, % of Cases: 0.225%
  Alanine aminotransferase increased, % of Cases: 0.6%
  Alopecia, % of Cases: 0.5%
  Amenorrhoea, % of Cases: 0.075%
  Amnesia, % of Cases: 0.15%
  Anaemia, % of Cases: 0.6%
  Anal cancer metastatic, % of Cases: 0.075%
  Anal fissure, % of Cases: 0.075%
  Anal incontinence, % of Cases: 0.075%
  Anal inflammation, % of Cases: 0.075%
  Anger, % of Cases: 0.075%
  Animal bite, % of Cases: 0.075%
  Animal scratch, % of Cases: 0.075%
  Anxiety, % of Cases: 0.9%
  Aphasia, % of Cases: 0.075%
  Aphonia, % of Cases: 0.225%
  Aphthous ulcer, % of Cases: 0.075%
  Aplastic anaemia, % of Cases: 0.075%
  Appendicitis perforated, % of Cases: 0.075%
  Appendicitis, % of Cases: 0.15%
  Appetite disorder, % of Cases: 0.15%
  Arthralgia, % of Cases: 2.4%
  Arthritis, % of Cases: 0.375%
  Ascites, % of Cases: 0.225%
  Aspartate aminotransferase increased, % of Cases: 0.3%
  Aspergillus infection, % of Cases: 0.075%
  Asthenia, % of Cases: 4.1%
  Asthenopia, % of Cases: 0.075%
  Asthma, % of Cases: 0.15%
  Astigmatism, % of Cases: 0.075%
  Atrial fibrillation, % of Cases: 0.075%
  Back pain, % of Cases: 0.9%
  Bacterial infection, % of Cases: 0.075%
  Balance disorder, % of Cases: 0.225%
  Biliary cirrhosis, % of Cases: 0.075%
  Bladder dilatation, % of Cases: 0.075%
  Bladder spasm, % of Cases: 0.225%
  Blister, % of Cases: 0.15%
  Blood alkaline phosphatase increased, % of Cases: 0.15%
  Blood bilirubin increased, % of Cases: 0.15%
  Blood calcium decreased, % of Cases: 0.075%
  Blood creatinine abnormal, % of Cases: 0.075%
  Blood creatinine increased, % of Cases: 0.8%
  Blood electrolytes decreased, % of Cases: 0.15%
  Blood glucose decreased, % of Cases: 0.225%
  Blood glucose fluctuation, % of Cases: 0.075%
  Blood glucose increased, % of Cases: 0.075%
  Blood iron decreased, % of Cases: 0.225%
  Blood magnesium decreased, % of Cases: 0.3%
  Blood potassium decreased, % of Cases: 1.7%
  Blood pressure abnormal, % of Cases: 0.075%
  Blood pressure decreased, % of Cases: 0.225%
  Blood pressure increased, % of Cases: 0.6%
  Blood sodium decreased, % of Cases: 0.15%
  Blood urea increased, % of Cases: 0.3%
  Blood urea nitrogen/creatinine ratio increased, % of Cases: 0.075%
  Blood urine present, % of Cases: 0.15%
  Bone cancer, % of Cases: 0.075%
  Bone pain, % of Cases: 0.75%
  Bowel movement irregularity, % of Cases: 0.075%
  Brain cancer metastatic, % of Cases: 0.15%
  Brain natriuretic peptide increased, % of Cases: 0.075%
  Brain neoplasm malignant, % of Cases: 0.075%
  Brain neoplasm, % of Cases: 0.3%
  Brain oedema, % of Cases: 0.075%
  Brain operation, % of Cases: 0.15%
  Breast calcifications, % of Cases: 0.075%
  Breast cancer metastatic, % of Cases: 2.3%
  Breast cancer stage IV, % of Cases: 0.45%
  Breast cancer, % of Cases: 0.15%
  Breast cellulitis, % of Cases: 0.15%
  Breast disorder, % of Cases: 0.075%
  Breast haemorrhage, % of Cases: 0.075%
  Breast pain, % of Cases: 0.15%
  Breast reconstruction, % of Cases: 0.375%
  Breast swelling, % of Cases: 0.075%
  Brief resolved unexplained event, % of Cases: 0.075%
  Bronchitis, % of Cases: 0.075%
  Bundle branch block left, % of Cases: 0.075%
  Burning sensation, % of Cases: 0.3%
  COVID-19, % of Cases: 0.15%
  Cachexia, % of Cases: 0.075%
  Cancer pain, % of Cases: 0.075%
  Candida infection, % of Cases: 0.15%
  Carbohydrate antigen 15-3 increased, % of Cases: 0.075%
  Cardiac disorder, % of Cases: 0.075%
  Cardiac failure congestive, % of Cases: 0.225%
  Cardiac operation, % of Cases: 0.075%
  Cardio-respiratory arrest, % of Cases: 0.075%
  Catatonia, % of Cases: 0.075%
  Cellulitis staphylococcal, % of Cases: 0.075%
  Cellulitis, % of Cases: 0.15%
  Central nervous system haemorrhage, % of Cases: 0.075%
  Central venous catheter removal, % of Cases: 0.075%
  Central venous catheterisation, % of Cases: 0.075%
  Cerebral cyst, % of Cases: 0.075%
  Cerebrovascular accident, % of Cases: 0.3%
  Chapped lips, % of Cases: 0.075%
  Chest discomfort, % of Cases: 0.15%
  Chest pain, % of Cases: 0.6%
  Chest wall tumour, % of Cases: 0.075%
  Chills, % of Cases: 0.5%
  Cholangiocarcinoma, % of Cases: 0.075%
  Cholecystectomy, % of Cases: 0.075%
  Cholecystitis, % of Cases: 0.075%
  Cholelithiasis, % of Cases: 0.15%
  Chromaturia, % of Cases: 0.15%
  Chronic fatigue syndrome, % of Cases: 0.075%
  Chronic hepatic failure, % of Cases: 0.075%
  Clostridium difficile colitis, % of Cases: 0.075%
  Clostridium difficile infection, % of Cases: 0.225%
  Coagulopathy, % of Cases: 0.075%
  Cognitive disorder, % of Cases: 0.15%
  Colectomy, % of Cases: 0.075%
  Colitis ulcerative, % of Cases: 0.075%
  Colitis, % of Cases: 0.3%
  Colon cancer, % of Cases: 0.15%
  Coma, % of Cases: 0.075%
  Completed suicide, % of Cases: 0.075%
  Condition aggravated, % of Cases: 0.075%
  Confusional state, % of Cases: 0.8%
  Conjunctivitis, % of Cases: 0.075%
  Constipation, % of Cases: 15.5%
  Contusion, % of Cases: 0.225%
  Cough, % of Cases: 1.4%
  Critical illness, % of Cases: 0.075%
  Cyst, % of Cases: 0.075%
  Cystitis, % of Cases: 0.375%
  Deafness bilateral, % of Cases: 0.075%
  Death, % of Cases: 9.6%
  Decreased appetite, % of Cases: 11.9%
  Deep vein thrombosis, % of Cases: 0.075%
  Dehydration, % of Cases: 6.6%
  Dementia, % of Cases: 0.075%
  Dental operation, % of Cases: 0.075%
  Depressed mood, % of Cases: 0.3%
  Depression, % of Cases: 0.75%
  Dermatitis acneiform, % of Cases: 0.6%
  Dermatitis contact, % of Cases: 0.075%
  Device related infection, % of Cases: 0.225%
  Diabetic ketoacidosis, % of Cases: 0.075%
  Diarrhoea haemorrhagic, % of Cases: 0.225%
  Diarrhoea, % of Cases: 61.8%
  Diplegia, % of Cases: 0.075%
  Diplopia, % of Cases: 0.075%
  Discomfort, % of Cases: 0.075%
  Disease progression, % of Cases: 1.7%
  Disorientation, % of Cases: 0.075%
  Disturbance in attention, % of Cases: 0.075%
  Diverticulitis, % of Cases: 0.225%
  Dizziness, % of Cases: 4.6%
  Drug eruption, % of Cases: 0.075%
  Drug hypersensitivity, % of Cases: 0.075%
  Drug ineffective, % of Cases: 0.45%
  Drug interaction, % of Cases: 0.075%
  Drug intolerance, % of Cases: 1.0%
